The structures appear in SMILES notation.

The results in this text go back to article PMC11194091 (2024).

Assay [1] concerns G2C4 RNA (RNA, triplex) GGCCCC. The assay is described as follows: DSC. As to conditions: 100 mM NaCl; 10 mM sodium cacodylate pH 6.0; 300 μM ANP77, 300 μM RNA; triplex melting 38.1 to 41.5; derived from two Tm.
The subject of assay [2] is G2C4 RNA (RNA, triplex) GGCCCC. The assay is described as follows: ITC. As to conditions: 100 mM NaCl; 10 mM sodium cacodylate pH 6.0, 25°C; one set of sites model.
The test system of assay [3] is (G2C4)2 (RNA, repeat) GGCCCCGGCCCC
In words: ITC. As to conditions: 100 mM NaCl; 10 mM sodium cacodylate pH 6.0, 25°C; sequential binding sites model; site 1 of 2.

Assay [4] shares this test system. In words: circular dichroism. As to conditions: 100 mM NaCl; 10 mM sodium cacodylate pH 7.0, room temperature; 2.5 μM RNA, 25 μM ANP77.
The test system of assay [5] is RNA oligomer having five G2C4 repeats (RNA, repeat) GGCCCCGGCCCCGGCCCCGGCCCCGGCCCC
The assay is described as follows: circular dichroism. As to conditions: 100 mM NaCl; 10 mM sodium cacodylate pH 7.0, room temperature; 2.5 μM RNA, 25 μM ANP77. Background: Circular dichroism is the unequal absorption of left and right circularly polarised light.

Assay [6] relates to G2C4 RNA (RNA, triplex) GGCCCC. In words: X-ray crystal structure. As to conditions: 80 mM NaCl; 40 mM sodium cacodylate pH 6.0, 45% MPD, 12 mM spermine, 19°C; 1.1 Å.
The test system of assay [7] is G2C4 RNA (RNA, triplex) GGCCCC. The assay is described as follows: CSI-TOF mass spectrometry. As to conditions: 250 mM ammonium acetate; water/methanol 8:2, -10°C spray; 20 μM RNA, 50 μM ANP77; complexes with double-stranded form.

Consider `NCCCNC(=O)C(Cc1ccc2ccc(N)nc2n1)Cc1ccc2ccc(N)nc2n1`, for which, in assay [1], the “ΔTm1 (shift in Tm1)” value amounted to 3.4 °C. In addition, the values for the Kd in assay [2] and in assay [3] were 7.9 ± 1.0 µM and 0.976 ± 0.377 µM, respectively. The binding entry in assay [4], in assay [5], in assay [6] and in assay [7] was “yes” in each case.

Broadly, the Kd is the concentration at which binding is half-saturated. Lower therefore signals tighter binding.
